# Test results from the supplement of paper PMC11061612.
# Key:
# Assay in all cases: combination Emax (second highest fraction inhibited in the dose matrix, 72 h); higher = more inhibition; extreme values may be limits of the assay
# [1] = tested on: AMO-1 (Plasma Cell Myeloma)
# How it was run: (§1)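 Cell lines in DMEM/F12 or RPMI with 10% FBS were plated in 1536-well plates, held 24 hours at 37°C, 5% CO2, then given two-drug dose matrices for 72 hours (DMSO typically 0.2%). Viability was read by CellTiter-Glo 2.0 luminescence and scaled as inhibition from 0 (vehicle wells) to 1 (blank wells). Combination Emax is the second-highest inhibition in the matrix; Bliss excess is observed combination effect minus expected EA + EB − EA·EB, EA and EB being single-agent effects.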
# [2] = tested on: BT-549 (Breast Carcinoma)
# How it was run: as §1
# [3] = tested on: Ca9-22 (Head and Neck Carcinoma)
# How it was run: as §1
# [4] = tested on: D-263MG (Glioblastoma)
# How it was run: as §1
# [5] = tested on: HGC-27 (Gastric Carcinoma)
# How it was run: as §1
# [6] = tested on: HOP-62 (Lung Adenocarcinoma)
# How it was run: as §1
# [7] = tested on: HSC-4 (Oral Cavity Carcinoma)
# How it was run: as §1
# [8] = tested on: Hs-766T (Pancreatic Carcinoma)
# How it was run: as §1
# [9] = tested on: KARPAS-299 (T-Cell Non-Hodgkin's Lymphoma)
# How it was run: as §1
# [10] = tested on: LU-65 (Non-Small Cell Lung Carcinoma)
# How it was run: as §1
# [11] = tested on: MLMA (Other Blood Carcinomas)
# How it was run: as §1
# [12] = tested on: NCI-H1915 (Non-Small Cell Lung Carcinoma)
# How it was run: as §1
# [13] = tested on: NEC8 (Other Solid Carcinomas)
# How it was run: as §1
# [14] = tested on: OVCAR-4 (Ovarian Carcinoma)
# How it was run: as §1
# [15] = tested on: PANC-04-03 (Pancreatic Carcinoma)
# How it was run: as §1
# [16] = tested on: SCC-15 (Oral Cavity Carcinoma)
# How it was run: as §1
# [17] = tested on: SU8686 (Pancreatic Carcinoma)
# How it was run: as §1
# [18] = tested on: TE-1 (Esophageal Squamous Cell Carcinoma)
# How it was run: as §1
# [19] = tested on: TGW (Neuroblastoma)
# How it was run: as §1
# [20] = tested on: YH-13 (Glioblastoma)
# How it was run: as §1
SMILES,combination Emax [1],combination Emax [2],combination Emax [3],combination Emax [4],combination Emax [5],combination Emax [6],combination Emax [7],combination Emax [8],combination Emax [9],combination Emax [10],combination Emax [11],combination Emax [12],combination Emax [13],combination Emax [14],combination Emax [15],combination Emax [16],combination Emax [17],combination Emax [18],combination Emax [19],combination Emax [20]
"CN(C)CCCOc1ccc(-c2ccc3ncc4c(c3c2)n(C2CCOCC2)c(=O)n4C)cn1 [AZD0156] + C=CCn1c(=O)c2cnc(Nc3ccc(N4CCN(C)CC4)cc3)nc2n1-c1cccc(C(C)(C)O)n1 [AZD1775] (first compound max 1 µM, partner max 1 µM)",0.827,0.613,0.721,0.38,0.499,0.266,0.389,0.43,0.918,0.639,0.908,0.563,0.336,0.55,0.471,0.308,0.208,0.627,0.769,0.352
"CN(C)CCCOc1ccc(-c2ccc3ncc4c(c3c2)n(C2CCOCC2)c(=O)n4C)cn1 [AZD0156] + CCN(CCO)CCCOc1ccc2c(Nc3cc(CC(=O)Nc4cccc(F)c4)[nH]n3)ncnc2c1 [AZD2811] (first compound max 1 µM, 7x7, partner max 1 µM)",0.312,0.221,0.127,0.329,0.866,0.0853,0.0498,0.0844,0.243,0.281,0.239,0.299,0.146,0.148,0.0564,0.201,0.0439,0.254,0.356,0.348
"CN(C)CCCOc1ccc(-c2ccc3ncc4c(c3c2)n(C2CCOCC2)c(=O)n4C)cn1 [AZD0156] + C[C@@H]1COCCN1C2=NC(=NC(=C2)C3(CC3)[S@](=N)(=O)C)C4=C5C=CNC5=NC=C4 [AZD6738] (first compound max 1 µM, 7x7, partner max 10 µM)",0.908,0.46,0.925,0.857,0.862,0.546,0.685,0.607,0.953,0.76,0.79,0.522,0.877,0.697,0.615,0.446,0.365,0.462,0.833,0.578
"CN(C)CCCOc1ccc(-c2ccc3ncc4c(c3c2)n(C2CCOCC2)c(=O)n4C)cn1 [AZD0156] + O=C(c1cc(Cc2n[nH]c(=O)c3ccccc23)ccc1F)N1CCN(C(=O)C2CC2)CC1 [Olaparib] (first compound max 3 µM, partner max 3 µM)",0.481,0.102,0.465,0.196,0.478,0.122,0.234,0.207,0.467,0.268,0.363,0.231,0.277,0.149,0.32,0.277,0.146,0.0888,0.413,0.453
"CS(=O)(=O)CCNCc1ccc(-c2ccc3ncnc(Nc4ccc(OCc5cccc(F)c5)c(Cl)c4)c3c2)o1 [Lapatinib] + NC1(c2ccc(-c3nc4ccn5c(=O)[nH]nc5c4cc3-c3ccccc3)cc2)CCC1 [MK-2206] (first compound max 10 µM, 7x7, partner max 10 µM)",0.963,0.583,0.971,0.492,0.988,,0.42,0.303,0.926,0.649,0.945,,,,0.505,,,,0.422,0.909
"CCc1c2c(nc3ccc(O)cc13)-c1cc3c(c(=O)n1C2)COC(=O)[C@]3(O)CC [SN-38] + O=C(c1cc(Cc2n[nH]c(=O)c3ccccc23)ccc1F)N1CCN(C(=O)C2CC2)CC1 [Olaparib] (first compound max 0.3 µM, 7x7, partner max 10 µM)",0.952,0.636,0.868,0.703,0.852,0.672,,0.415,0.896,0.87,0.858,,1,0.24,0.465,,,,0.668,0.58
"CC1(C)CCC(CN2CCN(c3ccc(C(=O)NS(=O)(=O)c4ccc(NCC5CCOCC5)c([N+](=O)[O-])c4)c(Oc4cnc5[nH]ccc5c4)c3)CC2)=C(c2ccc(Cl)cc2)C1 [Venetoclax] + CS(=O)(=O)CCNCc1ccc(-c2ccc3ncnc(Nc4ccc(OCc5cccc(F)c5)c(Cl)c4)c3c2)o1 [Lapatinib] (first compound max 1 µM, 7x7, partner max 10 µM)",0.882,0.249,0.777,0.108,,,,0.208,0.337,0.207,0.117,,,,0.291,,,,0.459,0.0901
